According to patent publication US20190350955A1, “METHODS AND PHARMACEUTICAL COMPOSITIONS FOR THE TREATMENT OF CARDIOMYOPATHIES” (INSERM (Institut National de la Sante et de la Recherche …, priority 2016, published 2019):

What was measured:
Format in all cases: in vivo, mouse
[1] = test system: Lmna^WT/WT mice; assay: Echocardiography in NR-diet wild type mice; conditions: whatever the diet and the course of the treatment
Experimental: Mice were bred in an accredited animal facility (accreditation number: C-75-13-08). All experiments on mice were approved by the Comité d'éthique en expérimentation animate Charles Darwin No 5. Mice Lmna^H222P/H222P were backcrossed 8 times to 129S2/SvPasOrlRj strain mice to obtain pure genetic background. Male mice used for the studies were maintained under a 12 h light/12 h dark cycle at constant temperature (23° C.) with free access to food and water. Nicotinamide riboside (NR) complementation: Animals at 17 weeks of age were fed for 9 weeks with either a chow diet (A04: Scientific Animal Food & Engineering) or a chow diet complemented with 0.25% of NR (kindly provided by ChromaDex, Inc. California) corresponding to a dose of 400 mg/kg/day for a mouse weighing 25 g eating 4 g of food per day. […]
Mouse transthoracic echocardiography was performed using an ACUSON 128XP/10 ultrasound with a 11 Mhz linear probe (Mountain View).MHz transducer applied to the chest wall. […] The intra ventricular septum (IVS), LV posterior wall (LVPW), LV diameter (LVD) in diastole and systole, the percentage of fractional shortening (FS) and the heart rate (HR) were measured from the mean of at least three separate cardiac cycles. […]

[2] = test system: TAC mice; assay: Echocardiography after transverse aorta constriction (TAC); conditions: NR enriched diet 400 mg/kg/day vs untreated TAC group
Experimental: Transverse aorta constriction was performed in 2 month-old male mice under anesthesia (ketamine 100 mg/kg, xylazin 16 mg/kg). Skin was opened above the sternum and the upper part of the sternum was cut on a length of 2 mm allowing the mouse to breath without the need of a ventilator. A surgical suture was passed under the aortic cross between the right brachiocephalic (innominate) artery and left common carotid artery and a 27-½ gauge blunt needle was placed parallel to the wall of the aortic cross as a calibrator. Two loose knots were tied around the aortic cross and the needle. […]
Echocardiography was performed on lightly anesthetized mice given isoflurane (induction with 2% isoflurane 100% O2. and maintained with 0.5% isoflurance 100% O2). Non-invasive measurements of left ventricular dimensions were evaluated using Doppler echocardiography (Vivid 7 Dimension/Vivid7 PRO; GE Medical Systems) with a probe ultrasound frequency range of 9-14 MHz. […] LV fractional shortening (FS) was calculated using the formula: (LVEDD−LVESD)/LVEDD×100. LV myocardial volume (LVV), LV end-diastolic volume (EDV), and end-systolic volume (ESV) were calculated using a half-ellipsoid model of the LV. From these volumes, LV ejection fraction (EF) was calculated using, the formula: (EDV−ESV)/EDV×100. H/R ratio was calculated by the formula (PWThd+IVSThd)/LVEDd.

[3] = test system: TAC mice; assay: Myocardial NAD+ levels after TAC; conditions: 6 weeks after TAC, NR treated TAC group vs non treated CD TAC group
Experimental: (§1) Transverse aorta constriction was performed in 2 month-old male mice under anesthesia (ketamine 100 mg/kg, xylazin 16 mg/kg). Skin was opened above the sternum and the upper part of the sternum was cut on a length of 2 mm allowing the mouse to breath without the need of a ventilator. A surgical suture was passed under the aortic cross between the right brachiocephalic (innominate) artery and left common carotid artery and a 27-½ gauge blunt needle was placed parallel to the wall of the aortic cross as a calibrator. Two loose knots were tied around the aortic cross and the needle. The first knot was quickly tied against the needle, followed by the second and the needle was promptly removed in order to produce a constriction of 0.4 mm in diameter. In sham, mice the procedure was the same except for the constriction of the aorta. NR treatment was started 2 days after the TAC or SHAM surgery.
Tissue frozen powder was resuspended in 75% ethanol, 25% HEPES 10 mM pH 7.1, buffer (20 μl/mg of tissue). Extracts were warmed 5 min at 80° C., then directly cold on ice and centrifuge 5 min at 16 000 g. Tissues extracts were normalized on the weight of tissue used for extraction. […] After adjustment of dilution factors, NADH levels were calculated by substracting the NAD^+ concentration to the non-heated ethanolic extract values: NADH=NADt (non heated)−NAD^+ (heated). […]

[4] = test system: TAC mice; assay: RT-qPCR of Nmrk2, Nmrk1, Nampt mRNA after TAC; conditions: 6 weeks after surgery, NR 400 mg/kg/day
Experimental: as §1
cDNAs were reverse transcribed from RNA (1.5 μg) extracted in TRIzol (Thermofisher) from cell cultures and tissues using the Superscript II Reverse Transcriptase (Life Technologies). Quantitative PCR was carried out on a Light Cycler 480 (Roche Diagnostics) using Fast Start SYBR Green Master (Roche Diagnostics). Quantification of gene expression was calculated as R=2^ΔCt(Ref Cp−target Cp), with Hprt used as a as reference. Primers were designed using the NCBI Primer-BLAST software. […]

NC(=O)c1ccc[n+]([C@@H]2O[C@H](CO)[C@@H](O)[C@H]2O)c1 [NR, nicotinamide riboside]
cardiac structure and function by echocardiography [1]: No difference | drop in LVEF triggered by TAC [2]: limits | thickening of the interventricular septum (IVSTh) triggered by TAC [2]: limits | myocardial NAD+ levels [3]: significantly higher | Nmrk2, Nmrk1 and Nampt mRNA levels [4]: no impact
